{"source": "paper PMC10960464", "about": "“In vivo antimalarial effect of 1-hydroxy-5,6,7-trimethoxyxanthone isolated from Mammea siamensis T. Anders. flowers: pharmacokinetic and acute toxicity studies” (BMC Complementary Medicine and Therapies, 2024)", "key": {"[1]": {"tested_on": "Plasmodium berghei ANKA strain", "assay": "In vivo 4-day suppressive test of P. berghei in ICR mice", "design": "species or system Plasmodium berghei (in ICR mice)", "conditions": "mean ± SEM, n = 5", "description": "Wild-type P. berghei ANKA strain was obtained from Thomas F. McCutchan (BEI Resources, NIAID, NIH). P. berghei-infected red blood cells were administered intraperitoneally to donor mice. When parasitemia levels reached 20–30%, blood was collected from the heart using a cardiac puncture procedure and placed in a vacutainer heparinized tube for injection into experimental animals.\nA 4-day suppressive test was used to measure the schizonticidal activity of HTX in P. berghei-infected ICR mice. This test was performed according to a previous method, with some modifications. All mice were intraperitoneally injected with 1 × 10^7P. berghei ANKA-parasitized erythrocytes. Treatment was initiated four hours after the mice were infected with Plasmodium parasite on the first day (D0). […] For each experimental group, animals received daily intraperitoneal doses of 1, 3, or 10 mg/kg body weight of HTX. Mice received each substance daily for 4 days (D0-D3). On the fifth day (D4), parasitemia was determined using Giemsa-stained thin blood smears prepared from the tails of each mouse. Mice were euthanized at the end of the experiment by intraperitoneal injection of pentobarbital (200 mg/kg body weight).\nFinally, the percentage suppression of parasite growth was calculated using the following equation: [drawing 1]"}, "[2]": {"tested_on": "P. falciparum chloroquine-resistant (FCR3) strain", "conditions": "cited from earlier work"}, "[3]": {"tested_on": "liver and kidney tissues of ICR mice", "assay": "Histopathological examination of liver and kidney tissues (H&E) in the acute toxicity test", "format": "in vivo", "conditions": "50 mg/kg single intraperitoneal dose", "description": "(§1) Acute HTX toxicity was determined in non-infected ICR mice aged 6–8 weeks and weighing 25–35 g using the Organization for Economic Cooperation and Development standard criteria. Fifteen mice were randomly divided into three groups (n = 5): untreated, negative control, and HTX-treated. All mice fasted for three hours prior to the experiment, and only drinking water was available. HTX was dissolved in 2% DMSO in NSS at 50 mg/kg body weight. In the treatment group, the first mouse was intraperitoneally given a single dose of 50 mg/kg body weight HTX, whereas in the negative control group, the first mouse was intraperitoneally given 200 µL of 2% DMSO in NSS. […] All mice were anaesthetized using pentobarbital (60 mg/kg body weight) by intraperitoneal injection. Blood samples were collected via cardiac puncture into heparinized tubes for biochemical analyses. The liver and kidney tissues were collected for histological examination. The mice were subsequently euthanized with an intraperitoneal injection of pentobarbital (200 mg/kg body weight).\n[…]. In brief, all tissues were fixed in 10% buffered formalin, dehydrated using a gradient series of ethanol solutions, cleaned with xylene, and deposited in a paraffin mold. The paraffin blocks were then sectioned to a thickness of 5 μm using a rotary microtome, transferred to glass slides, and stained with hematoxylin and eosin (H&E) solution. […]"}, "[4]": {"tested_on": "Plasmodium falciparum K1 strain", "conditions": "P. falciparum K1 strain (chloroquine-resistant), in vitro; read-out: IC50, antiplasmodial activity; cited from earlier work"}, "[5]": {"assay": "In vivo pharmacokinetic study after intraperitoneal administration, plasma LC-MS/MS", "conditions": "5 mg/kg intraperitoneal, ICR mice, n = 5", "description": "A pharmacokinetic study was conducted in non-infected ICR mice aged 6–8 weeks and weighing 25–35 g. Male ICR mice were randomly divided into two groups, each consisting of five mice. The first group is a negative control group and was injected with 150 µL of 2% DMSO in NSS, whereas the second group is a test group that was administered 5 mg/kg body weight of HTX compound intraperitoneally. Blood ([…]) was taken from the tail vein prior to administration of test compounds (0 h) and after at, 0.5, 1, 2, 3, 5, 8, 24, 48, and 72 h. Blood samples were collected in microtubes containing ethylenediaminetetraacetic acid (EDTA) and kept on ice until they were centrifuged at 3,000 × g for 10 min at 4 °C to allow the collection of plasma, which was stored at − 80 °C.\nLC-MS/MS (Agilent 1290 infinity LC and Agilent 6490 triple quadrupole mass spectrometer) with an electrospray ionization (ESI, Agilent Technologies, USA) source was used to detect HTX in the plasma. Using a VertiSepTM USP C18 column (4.6 mm × 150 mm, particle size = 5 μm; Vertical Chromatography Co., ltd., Nonthaburi, Thailand), the separation was achieved. Acetonitrile:1 mM formic acid (7:3) was used as the mobile phase and was maintained at a constant flow rate of 0.5 mL/min. The injection volume was 1 µL, and column temperature was maintained at 30 °C. The following operating conditions for the MS were optimized: the source temperature was kept at 200 °C, the ion spray voltage for the positive mode was set at 3 KV, and the collision energy for HTX was set at 43 V. Nitrogen was used as the collision gas. The nebulizer and sheath gas flow rates were set to 14 and 11 L/min, respectively. The MassHunter qualitative analysis software was used to acquire the data (Agilent Technologies, Inc. Headquarters, CA, USA). HTX was quantified using the transitions for HTX at m/z 303→199 in the multiple reaction monitoring (MRM) mode.\nBy dissolving precisely weighed HTX and reference compounds in acetonitrile, stock HTX solutions were prepared. By diluting the stock solutions using a mixture of acetonitrile and water (2:8, v/v), a series of working solutions with concentrations between 7.81 and 1000 ng/mL were prepared. All solutions were stored at 4 °C. By spiking the blank plasma (50 µL) with 25 µL of standard working solutions, HTX calibration standards (0.78, 1.56, 3.13, 6.25, 12.5, 25.0, 50, 125, and 250 ng/mL) were prepared. The extraction solvent ethyl acetate (0.5 mL) was added to 75 µL of HTX-spiked plasma. The sample was vortexed for 1 min, followed by ultrasonic vibration for 15 min. Then, centrifugation for 10 min at 15,000 × g was done. The upper organic layer was transferred to a new microtube and dried via evaporation. The dried extract was reconstituted in 150 µL of 50% (v/v) acetonitrile in water. HTX recovery experiments were performed to confirm extraction efficacy. The effectiveness of liquid-liquid extraction was then determined by comparing the peak regions of the extracted HTX-spiked plasma with those of HTX spiked with blank plasma extract.\nThe plasma concentration-time profiles of HTX were determined by non-compartmental analysis with PKSolver 2.0 software. […] Additionally, the apparent volume of the central or plasma compartment, apparent volume of the peripheral compartment, transfer rate constant from the central compartment to the peripheral compartment, and transfer rate constant from the peripheral to central compartment were calculated using the two-compartment model."}, "non-infected ICR mice": {"tested_on": "non-infected ICR mice", "assay": "Acute toxicity test, single intraperitoneal dose, 14-day observation, liver and kidney biochemical parameters", "format": "in vivo", "description": "as §1"}, "[6]": {"conditions": "cited from earlier work"}, "[7]": {"conditions": "3 mg/kg intraperitoneal daily D0-D3, read on D4, P. berghei-infected ICR mice"}, "[8]": {"conditions": "1 mg/kg intraperitoneal daily D0-D3, read on D4, P. berghei-infected ICR mice"}, "[9]": {"conditions": "10 mg/kg intraperitoneal daily D0-D3, read on D4, P. berghei-infected ICR mice"}}, "note": "Values joined by “and” are separate entries in the source; they are usually repeats but may differ in a detail not shown here. Identical values can stand only once. “Also recorded” adds a separate entry of the source. Like-named read-outs stand apart in the source and are kept apart here.", "data": [{"smiles": "CCN(CC)CCCC(C)Nc1ccnc2cc(Cl)ccc12", "note": "(stereo not drawn) [Chloroquine, reference compound]", "values": [{"measurement": "% parasitemia", "setting": "[1]; [7]", "result": "3.42 ± 0.35", "unit": "%"}, {"measurement": "% suppression", "setting": "[1]; [7]", "result": "92.07 ± 4.21 ^c, d, e %"}, {"measurement": "% suppression", "setting": "[1]; 3 mg/kg intraperitoneal daily D0-D3, read on D4, P. berghei-infected ICR mice, listed as chloroquine", "result": 92.07, "unit": "%"}]}, {"smiles": "COc1c(O)cc2oc3cc(O)c(CC=C(C)C)c(O)c3c(=O)c2c1CC=C(C)C", "note": "[Α-Mangostin]", "values": [{"measurement": "IC50", "setting": "[2]", "result": 0.2, "unit": "µM"}]}, {"smiles": "COc1cc2c(=O)c3c(O)cccc3oc2c(OC)c1OC", "note": "[HTX, 1-hydroxy-5,6,7-trimethoxyxanthone]", "values": [{"measurement": "kidney histology (H&E)", "setting": "[3]", "result": "no histological changes; also recorded: normal; also recorded: did not present with lesions"}, {"measurement": "liver histology (H&E)", "setting": "[3]", "result": "no histological changes; also recorded: normal hepatocyte histology"}, {"measurement": "% parasitemia", "setting": "[1]; [8]", "result": "21.91 ± 2.25", "unit": "%"}, {"measurement": "% suppression", "setting": "[1]; [8]", "result": "34.56% and 34.56 ± 4.91 ^a, b, d, e %"}, {"measurement": "% parasitemia", "setting": "[1]; [7]", "result": "17.79 ± 2.31", "unit": "%"}, {"measurement": "% suppression", "setting": "[1]; [7]", "result": "46.88% and 46.88 ± 3.96 ^a, b, c, e %"}, {"measurement": "% parasitemia", "setting": "[1]; [9]", "result": "8.62 ± 1.21", "unit": "%"}, {"measurement": "% suppression", "setting": "[1]; [9]", "result": "74.26% and 74.26 ± 3.32 ^a, b, c, d %"}, {"measurement": "IC50", "setting": "[4]", "result": 9.57, "unit": "µM"}, {"measurement": "CL/F", "setting": "[5]; plasma", "result": "0.020 ± 0.002 (mg/kg)/(ng/mL)/h"}, {"measurement": "MRT0−∞", "setting": "[5]; plasma", "result": "14.79 h and 14.795 ± 0.515 h"}, {"measurement": "Vz/F", "setting": "[5]; plasma", "result": "0.405 ± 0.014 (mg/kg)/(ng/mL)"}, {"measurement": "t1/2 (elimination half-life)", "setting": "[5]; plasma", "result": "13.881 ± 1.231", "unit": "h"}, {"measurement": "K21 (rate constant, peripheral to central compartment)", "setting": "[5]; two-compartment model", "result": "0.156 ± 0.002", "unit": "h⁻¹"}, {"measurement": "V1 (apparent volume, central or plasma compartment)", "setting": "[5]; two-compartment model", "result": "1.633 ± 0.003 (mg/kg)/(ng/mL)"}, {"measurement": "V2 (apparent volume, peripheral compartment)", "setting": "[5]; two-compartment model", "result": "19.808 ± 2.031 (mg/kg)/(ng/mL)"}, {"measurement": "MRT inf", "setting": "[5]; male, ICR, mouse, plasma, ip, 5 mg/kg, plasma, read-out: MRT0−∞", "result": 14.8, "unit": "h"}, {"measurement": "half-life", "setting": "[5]; male, ICR, mouse, plasma, ip, 5 mg/kg, plasma, read-out: t1/2 (elimination half-life) (converted)", "result": 13.9, "unit": "h"}, {"measurement": "Cmax", "setting": "[5]; male, mouse, ip, plasma", "result": "94 ± 3.21", "unit": "ng/mL"}, {"measurement": "Tmax", "setting": "[5]; male, mouse, ip, plasma", "result": "0.5 ± 0.021", "unit": "h"}, {"measurement": "AUC(0-inf)", "setting": "[5]; male, mouse, ip, plasma, non-compartmental", "result": "247 ± 5.33", "unit": "ng·h/mL"}, {"measurement": "AUC(0-t)", "setting": "[5]; male, mouse, ip, plasma, non-compartmental, read-out: AUC0 − 48 h", "result": "226 ± 4.74", "unit": "ng·h/mL"}, {"measurement": "mortality", "setting": "non-infected ICR mice; 50 mg/kg single intraperitoneal dose, 24 h and following 14 days", "result": "No mortality; also recorded: all treated mice were alive; also recorded: did not cause mortality; also recorded: no behavioral changes or mortality"}, {"measurement": "effect on biochemical parameters of the liver and kidney functions", "setting": "non-infected ICR mice; 50 mg/kg single intraperitoneal dose, versus untreated and negative controls", "result": "no significant alterations; also recorded: did not affect the liver and kidney functions"}, {"measurement": "median lethal dose (LD50)", "setting": "non-infected ICR mice; intraperitoneal, single dose, 14 days", "result": "greater than 50 mg/kg body weight"}]}, {"smiles": "CC(C)(N)CNC(=O)C[C@H]1CC[C@]2(CC1)OO[C@]1(O2)C2CC3CC(C2)CC1C3", "note": "[arterolane]", "values": [{"measurement": "elimination half-life", "setting": "[6]; in vivo", "result": "2 to 4", "unit": "h"}]}, {"smiles": "C[C@H]1[C@@H](O)O[C@@H]2O[C@@]3(C)CC[C@H]4[C@H](C)CC[C@@H]1[C@@]24OO3", "note": "[dihydroartemisinin]", "values": [{"measurement": "elimination half-life", "setting": "[6]", "result": "0.9 to 2", "unit": "h"}]}, {"smiles": "C[C@H]1[C@H](OC(=O)CCC(=O)O)O[C@@H]2O[C@@]3(C)CC[C@H]4[C@H](C)CC[C@@H]1[C@@]24OO3", "note": "[Artesunate, reference compound]", "values": [{"measurement": "% parasitemia", "setting": "[1]; [7]", "result": "3.84 ± 0.54", "unit": "%"}, {"measurement": "elimination half-life", "setting": "[6]; in vivo", "result": "0.8 to 1.2", "unit": "h"}]}]}
